Data reported in PubChem BioAssay (NCI).
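Dose response: 5 concentrations. Exposure: 48 h. Format: 96-well plates. Endpoint: linear interpolation; highest concentration if not reached. The concentration for 50% growth inhibition is given as GI50. TGI marks complete inhibition of growth.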

Tests used:
Test in all cases: NCI anticancer screen, dose series, 48 h
SK-MEL-5 melanoma = tested on: SK-MEL-5 melanoma
HOP-92 NSCLC = tested on: HOP-92 NSCLC
SK-OV-3 ovarian = tested on: SK-OV-3 ovarian
SF-295 CNS = tested on: SF-295 CNS
HL-60(TB) leukemia = tested on: HL-60(TB) leukemia
NCI-H460 lung = tested on: NCI-H460 lung
RXF 393 renal = tested on: RXF 393 renal
SK-MEL-28 melanoma = tested on: SK-MEL-28 melanoma
HCT-116 colon = tested on: HCT-116 colon
U251 CNS = tested on: U251 CNS

Row | Compound | GI50 (SK-MEL-5 melanoma) [µM] | TGI (SK-MEL-5 melanoma) [µM] | GI50 (HOP-92 NSCLC) [µM] | TGI (HOP-92 NSCLC) [µM] | GI50 (SK-OV-3 ovarian) [µM] | TGI (SK-OV-3 ovarian) [µM] | GI50 (SF-295 CNS) [µM] | TGI (SF-295 CNS) [µM] | GI50 (HL-60(TB) leukemia) [µM] | TGI (HL-60(TB) leukemia) [µM] | GI50 (NCI-H460 lung) [µM] | TGI (NCI-H460 lung) [µM] | GI50 (RXF 393 renal) [µM] | TGI (RXF 393 renal) [µM] | GI50 (SK-MEL-28 melanoma) [µM] | TGI (SK-MEL-28 melanoma) [µM] | GI50 (HCT-116 colon) [µM] | TGI (HCT-116 colon) [µM] | GI50 (U251 CNS) [µM] | TGI (U251 CNS) [µM]
1 | COc1ccc(-c2c(-c3cc(OC)c4c(c3)OCO4)noc2N)cc1 | 0.0288 | 0.485 | 3.72 | 35.8 | 0.032 | 1.29 | 0.0197 | 23.8 | 0.0351 | 13.7 | 0.0339 | 10.9 | 0.0167 | 0.0627 | 0.872 | 33.4 | 0.0438 | 19.5 | 0.0382 | 42.7
2 | C[C@H]1C(Oc2ccc(O)cc2)OC2OC3(C)CCC4[C@H](C)CCC1C24OO3 (stereo not given in full) | 13.2 | 27.3 | 11.5 | 25 | 21.1 | 47.8 | 16.2 | 34.5 | 0.57 | 24.4 | 15.1 | 30.5 | 19.1 | 41.3 | 18.4 | 39.5 | 8.56 | 25 | 11 | 25.8
3 | N[C@@H]1CCCN(c2c(/C=C3\SC(=O)NC3=O)cccc2-c2ccccc2)C1 | 11.2 | 23.6 | 3.17 | 20.1 | 15.5 | 35 | 3.57 | 15.9 | 17.8 | 42.6 | 16.9 | 35.3 | 6.06 | 20.2 | 13.1 | 27.8 | 13.1 | 26.9 | 3.3 | 15.3
4 | OC(c1ccccn1)C1CNc2ccccc21 (stereo not given) |  | > 100 |  | > 100 |  | > 100 |  | > 100 |  | > 100 |  | > 100 |  | > 100 |  | > 100 |  | > 100 |  | > 100
5 | O=C(OCc1ccc2c(Cl)cc(Cl)c(O)c2n1)c1cc2ccccc2[nH]1 | 1.33 | 2.63 | 0.228 | 0.722 | 3.6 | 13.3 | 1.64 | 3.31 | 0.374 | 1.69 | 1.66 | 3.52 | 0.338 | 1.08 | 0.532 | 1.62 | 0.174 | 0.372 | 1.61 | 3.22
6 | CCCCCCCC(=O)SCC/C=C/[C@@H]1CC(=O)NCc2nc(co2)C2=N[C@@](C)(CS2)C(=O)N[C@@H](C(C)C)C(=O)O1 | 0.0179 | 0.0776 | 0.0147 | 0.111 | 0.0107 | 0.101 | 0.0264 | 0.282 | 0.0294 | 31.8 | 0.0137 | 8.55 | 0.0212 | 0.139 | 0.0138 | 0.936 | 0.0126 | 1.14 | 0.0448 | 0.472
7 | NC(=O)/C=C/NC(=O)/C=N\O |  | > 100 |  | > 100 |  | > 100 |  | > 100 |  | > 100 |  | > 100 |  | > 100 |  | > 100 |  | > 100 |  | > 100
